Earlier results as cited in patent publication US20230191113A1, “METHOD AND APPARATUS FOR CANCER TREATMENT” (Minnesota Medical Physics LLC, priority 2020, published 2023).

How the values were obtained:
[1] = test system: cancer tumors; details: cited from earlier work
[2] = biological target: T1, A3 receptors (Homo sapiens, UniProt P0DMS8); details: allosteric enhancer added to A3AR agonist; cited from earlier work
T1 sequence (P0DMS8 1-318): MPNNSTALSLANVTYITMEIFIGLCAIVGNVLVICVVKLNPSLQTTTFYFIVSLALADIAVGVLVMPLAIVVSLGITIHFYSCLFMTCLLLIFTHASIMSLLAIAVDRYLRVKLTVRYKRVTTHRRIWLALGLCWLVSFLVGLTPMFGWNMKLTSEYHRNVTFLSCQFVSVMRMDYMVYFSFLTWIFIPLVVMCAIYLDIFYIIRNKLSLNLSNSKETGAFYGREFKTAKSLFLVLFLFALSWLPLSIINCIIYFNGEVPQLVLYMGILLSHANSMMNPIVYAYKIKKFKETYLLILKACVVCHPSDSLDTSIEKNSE

Row | Structure (SMILES) | increase of the apoptotic rate by one-dimensional EFS ([1]; CL-IB-MECA plus one-dimensional EFS) [factor] | effect on growth of cancer tumors ([1]; multiple studies, significant dose of A3AR agonist alone) | increase of the maximum efficacy of A3 receptors agonists [2] [%]
1 | CNC(=O)[C@H]1O[C@@H](n2cnc3c(NCc4cccc(I)c4)nc(Cl)nc32)[C@H](O)[C@@H]1O [CL-IB-MECA] | 0.4 | slowed down the growth of cancer tumors | –
2 | Clc1ccc(Nc2nc3ccccc3c3nc(C4CCCCC4)[nH]c23)cc1Cl [LUF6000] | – | – | 45
